Structures are written as SMILES. Where a SMILES comes first, the peptide text is derived from it. Bridges are numbered along the chain shown (N, C = ends). Some results are limits rather than exact numbers.

The target in one experiment is T1, NPR-B (Homo sapiens, UniProt P20594).
T1 construct: a functional assay using endogenously NPR-B expressing GTM-3 cells; endogenous in cells; host or cells: GTM-3 (transformed human trabecular meshwork cells)
T1 sequence (P20594 23-1047): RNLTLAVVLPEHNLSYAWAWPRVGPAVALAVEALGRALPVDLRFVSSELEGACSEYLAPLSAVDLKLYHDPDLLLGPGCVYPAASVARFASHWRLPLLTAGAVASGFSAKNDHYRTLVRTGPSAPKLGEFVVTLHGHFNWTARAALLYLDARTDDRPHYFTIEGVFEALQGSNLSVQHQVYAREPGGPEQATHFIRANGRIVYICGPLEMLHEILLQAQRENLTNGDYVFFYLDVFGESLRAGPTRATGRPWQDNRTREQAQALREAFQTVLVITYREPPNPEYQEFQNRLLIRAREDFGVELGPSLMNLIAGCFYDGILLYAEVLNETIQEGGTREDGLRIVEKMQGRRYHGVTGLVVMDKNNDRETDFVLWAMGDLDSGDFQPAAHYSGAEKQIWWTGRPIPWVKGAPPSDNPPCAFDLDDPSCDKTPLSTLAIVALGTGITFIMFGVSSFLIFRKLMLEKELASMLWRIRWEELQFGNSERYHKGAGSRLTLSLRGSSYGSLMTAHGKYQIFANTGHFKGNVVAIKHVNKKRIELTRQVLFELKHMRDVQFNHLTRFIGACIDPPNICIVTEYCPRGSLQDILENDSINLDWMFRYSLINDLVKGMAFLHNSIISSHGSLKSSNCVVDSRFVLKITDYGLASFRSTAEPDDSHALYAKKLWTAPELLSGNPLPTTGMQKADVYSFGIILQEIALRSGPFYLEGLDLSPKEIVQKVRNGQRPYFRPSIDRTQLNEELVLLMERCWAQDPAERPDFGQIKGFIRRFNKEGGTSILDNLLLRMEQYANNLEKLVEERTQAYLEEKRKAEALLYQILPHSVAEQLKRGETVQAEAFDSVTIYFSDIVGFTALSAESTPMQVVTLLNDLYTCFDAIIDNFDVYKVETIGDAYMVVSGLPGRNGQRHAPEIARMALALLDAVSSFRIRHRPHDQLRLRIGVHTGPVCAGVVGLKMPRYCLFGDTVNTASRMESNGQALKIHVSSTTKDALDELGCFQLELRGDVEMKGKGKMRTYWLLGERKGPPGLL
The experiment is described as follows: NPR-B induced production of cyclic GMP in GTM-3 cells. In kind it is cell-based. The settings on record: Activity (group): NPR-B activation, EC50 and Emax (CNP = 100%), GTM-3 cells; group needs both EC50 and Emax criteria, checked A then B then C. As to the method: The efficacy and potency of compounds to activate NPR-B were evaluated in a functional assay using endogenously NPR-B expressing GTM-3 cells (Pang et al. 1994, Curr Eye Res 13:51-63). In this assay the dose dependent production of cyclic GMP (cGMP) is determined and Emax (maximum activation) and EC50 values are calculated.
The cell culture medium is aspirated and each well is washed with 200 μl DMEM/Ham's F12=Medium (Gibco). Then, 200 μl Medium supplemented with 1 mM IBMX (3-Isobutyl-1-methyl-xanthin, Sigma) is added to each well and incubated for 15 min. at room temperature.
Final compound concentrations are in the range from 45 μM to 20 nM.
`CC[C@H](C)[C@@H]1NC(=O)[C@H](CCCNC(=N)N)NC(=O)[C@H](CC(=O)O)NC(=O)[C@H](CC(C)C)NC(=O)[C@H](CCCCN)NC(=O)[C@H](Cc2c[nH]cn2)NC(=O)CNC(=O)[C@H](Cc2ccccc2)NC(=O)[C@H](Cc2c[nH]cn2)NC(=O)[C@@H](NC(=O)[C@@H](N)CCSC)CSSC[C@@H](C(N)=O)NC(=O)[C@H](CO)NC1=O` [compound 20] (H-MCHFGHKLDRISC-NH2; disulfide 2-13) returned an EC50 of less than 5 µM.

The experiment is the same for the next values; noted with them: GTM-3 cells; group needs both EC50 and Emax criteria, checked A then B then C; read-out: Activity (group): NPR-B activation, EC50 and Emax (CNP = 100%).
Take `CC[C@H](C)[C@@H]1NC(=O)[C@H](CCCNC(=N)N)NC(=O)[C@H](CC(=O)O)NC(=O)[C@H](CC(C)C)NC(=O)[C@H](CCCCN)NC(=O)[C@H](CC(C)C)NC(=O)CNC(=O)[C@H](Cc2ccccc2)NC(=O)[C@H](Cc2c[nH]cn2)NC(=O)[C@@H](NC(=O)[C@@H](N)CCSC)CSSC[C@@H](C(=O)N[C@@H](Cc2ccc(O)cc2)C(=O)N[C@@H](CCCNC(=N)N)C(N)=O)NC(=O)[C@H](CO)NC1=O` [compound 5] (H-MCHFGLKLDRISCYR-NH2; disulfide 2-13): the EC50 was less than 5 µM.

With `CC[C@H](C)[C@@H]1NC(=O)[C@H](CCCNC(=N)N)NC(=O)[C@H](CC(=O)O)NC(=O)[C@H](CC(C)C)NC(=O)[C@H](CCCCN)NC(=O)[C@H](CC(C)C)NC(=O)CNC(=O)[C@H](Cc2ccccc2)NC(=O)[C@H](Cc2c[nH]cn2)NC(=O)[C@@H](NC(=O)[C@@H](N)CCSC)CSSC[C@@H](C(=O)N[C@@H](Cc2ccc(O)cc2)C(N)=O)NC(=O)[C@H](CO)NC1=O` [compound 6] (H-MCHFGLKLDRISCY-NH2; disulfide 2-13), the concentration giving a half-maximal response (EC50) was less than 5 µM.

Take `CC[C@H](C)[C@@H]1NC(=O)[C@H](CCCNC(=N)N)NC(=O)[C@H](CC(=O)O)NC(=O)[C@H](CC(C)C)NC(=O)[C@H](CCCCN)NC(=O)[C@H](CC(C)C)NC(=O)CNC(=O)[C@H](Cc2ccccc2)NC(=O)[C@H](Cc2c[nH]cn2)NC(=O)[C@@H](NC(=O)[C@@H](N)CCSC)CSSC[C@@H](C(N)=O)NC(=O)[C@H](CO)NC1=O` [compound 7]: the EC50 was less than 5 µM.

On to `CC[C@H](C)[C@@H]1NC(=O)[C@H](CCCNC(=N)N)NC(=O)[C@H](CC(=O)O)NC(=O)[C@H](CC(C)C)NC(=O)[C@H](CCCCN)NC(=O)[C@H](CC(C)C)NC(=O)CNC(=O)[C@H](Cc2ccccc2)NC(=O)[C@H](C)NC(=O)[C@@H](NC(=O)[C@@H](N)CCSC)CSSC[C@@H](C(N)=O)NC(=O)[C@H](CO)NC1=O` [compound 8], for which the EC50 is less than 5 µM.

For the molecule `CC[C@H](C)[C@@H]1NC(=O)[C@H](CCCNC(=N)N)NC(=O)[C@H](CC(=O)O)NC(=O)[C@H](CC(C)C)NC(=O)[C@H](CCCCN)NC(=O)[C@H](C)NC(=O)CNC(=O)[C@H](Cc2ccccc2)NC(=O)[C@H](Cc2c[nH]cn2)NC(=O)[C@@H](NC(=O)[C@@H](N)CCSC)CSSC[C@@H](C(N)=O)NC(=O)[C@H](CO)NC1=O` [compound 9] (H-MCHFGAKLDRISC-NH2; disulfide 2-13), the EC50 is less than 15 µM.

Turning to `CC[C@H](C)[C@@H]1NC(=O)[C@H](CCCNC(=N)N)NC(=O)[C@H](CC(=O)O)NC(=O)[C@H](CC(C)C)NC(=O)[C@H](CCCCN)NC(=O)[C@H](CC(C)C)NC(=O)CNC(=O)[C@H](Cc2ccccc2)NC(=O)[C@H](Cc2c[nH]cn2)NC(=O)[C@@H](NC(=O)[C@H](N)CCSC)CSSC[C@@H](C(N)=O)NC(=O)[C@H](CO)NC1=O` [compound 10], the EC50 is less than 5 µM.

Regarding `CC[C@H](C)[C@@H]1NC(=O)[C@H](CCCNC(=N)N)NC(=O)[C@H](CC(=O)O)NC(=O)[C@H](CC(C)C)NC(=O)[C@H](CCCCN)NC(=O)[C@H](CC(C)C)NC(=O)CNC(=O)[C@H](Cc2ccccc2)NC(=O)[C@H](Cc2c[nH]cn2)NC(=O)[C@H](NC(=O)[C@@H](N)CCSC)CSSC[C@@H](C(N)=O)NC(=O)[C@H](CO)NC1=O` [compound 11], the EC50 is less than 15 µM.

For the molecule `CC[C@H](C)[C@@H]1NC(=O)[C@H](CCCNC(=N)N)NC(=O)[C@H](CC(=O)O)NC(=O)[C@H](CC(C)C)NC(=O)[C@H](CCCCN)NC(=O)[C@H](CC(C)C)NC(=O)CNC(=O)[C@H](Cc2ccccc2)NC(=O)[C@@H](Cc2c[nH]cn2)NC(=O)[C@@H](NC(=O)[C@@H](N)CCSC)CSSC[C@@H](C(N)=O)NC(=O)[C@H](CO)NC1=O` [compound 12], the EC50 was less than 5 µM.

Regarding `CC[C@H](C)[C@@H]1NC(=O)[C@H](CCCNC(=N)N)NC(=O)[C@H](CC(=O)O)NC(=O)[C@H](CC(C)C)NC(=O)[C@H](CCCCN)NC(=O)[C@H](CC(C)C)NC(=O)CNC(=O)[C@H](Cc2ccccc2)NC(=O)[C@H](Cc2c[nH]cn2)NC(=O)[C@H](NC(=O)[C@@H](N)CCSC)CSSC[C@H](C(N)=O)NC(=O)[C@H](CO)NC1=O` [compound 13], the EC50 was less than 15 µM.

As to `CC[C@H](C)[C@@H]1NC(=O)[C@H](CCCNC(=N)N)NC(=O)[C@H](CC(=O)O)NC(=O)[C@H](CC(C)C)NC(=O)[C@H](CCCCN)NC(=O)[C@H](CC(C)C)NC(=O)CNC(=O)[C@H](Cc2ccccc2)NC(=O)[C@H](Cc2c[nH]cn2)NC(=O)[C@@H](NC(=O)[C@@H](N)CCSC)CSSC[C@@H](C(=O)O)NC(=O)[C@H](CO)NC1=O` [compound 15], the EC50 was less than 15 µM.

Take `CCCC[C@H](N)C(=O)N[C@H]1CSSC[C@@H](C(N)=O)NC(=O)[C@H](CO)NC(=O)[C@H]([C@@H](C)CC)NC(=O)[C@H](CCCNC(=N)N)NC(=O)[C@H](CC(=O)O)NC(=O)[C@H](CC(C)C)NC(=O)[C@H](CCCCN)NC(=O)[C@H](CC(C)C)NC(=O)CNC(=O)[C@H](Cc2ccccc2)NC(=O)[C@H](Cc2c[nH]cn2)NC1=O` [compound 16]: the EC50 is less than 15 µM.

Regarding `CC[C@H](C)[C@@H]1NC(=O)[C@H](CCCNC(=N)N)NC(=O)[C@H](CC(=O)O)NC(=O)[C@H](CC(C)C)NC(=O)[C@H](CCCCN)NC(=O)[C@H](CC(C)C)NC(=O)CNC(=O)[C@H](Cc2ccccc2)NC(=O)CNC(=O)[C@@H](NC(=O)[C@@H](N)CCSC)CSSC[C@@H](C(N)=O)NC(=O)[C@H](CO)NC1=O` [compound 17], the EC50 was less than 5 µM.

As for `CC[C@H](C)[C@@H]1NC(=O)[C@H](CCCNC(=N)N)NC(=O)[C@H](CC(=O)O)NC(=O)[C@H](CC(C)C)NC(=O)[C@H](CCCCN)NC(=O)[C@H](CC(C)C)NC(=O)CNC(=O)[C@H](Cc2ccccc2)NC(=O)[C@H](CO)NC(=O)[C@@H](NC(=O)[C@@H](N)CCSC)CSSC[C@@H](C(N)=O)NC(=O)[C@H](CO)NC1=O` [compound 18], the EC50 is less than 5 µM.

Turning to `CC[C@H](C)[C@@H]1NC(=O)[C@H](CCCNC(=N)N)NC(=O)[C@H](CC(=O)O)NC(=O)[C@H](CC(C)C)NC(=O)[C@H](CCCCN)NC(=O)[C@H](CC(=O)O)NC(=O)CNC(=O)[C@H](Cc2ccccc2)NC(=O)[C@H](Cc2c[nH]cn2)NC(=O)[C@@H](NC(=O)[C@@H](N)CCSC)CSSC[C@@H](C(N)=O)NC(=O)[C@H](CO)NC1=O` [compound 19] (H-MCHFGDKLDRISC-NH2; disulfide 2-13), the EC50 is less than 5 µM.

With `CC[C@H](C)[C@@H]1NC(=O)[C@H](CCCNC(=N)N)NC(=O)[C@H](CC(=O)O)NC(=O)[C@H](CC(C)C)NC(=O)[C@H](CCCCN)NC(=O)[C@H](CC(C)C)NC(=O)CNC(=O)[C@H](Cc2ccccc2)NC(=O)[C@H](Cc2c[nH]cn2)NC(=O)[C@@H](NC(=O)[C@@H](N)CCSC)CSSC[C@@H](C(=O)N[C@@H](Cc2c[nH]c3ccccc23)C(=O)N[C@@H](CCCNC(=N)N)C(N)=O)NC(=O)[C@H](CO)NC1=O` [compound 21] (H-MCHFGLKLDRISCWR-NH2; disulfide 2-13), the EC50 is less than 15 µM.

With `CC[C@H](C)[C@@H]1NC(=O)[C@H](CCCNC(=N)N)NC(=O)[C@H](CC(=O)O)NC(=O)[C@H](CC(C)C)NC(=O)[C@H](CCCCN)NC(=O)[C@H](CC(C)C)NC(=O)CNC(=O)[C@H](Cc2ccccc2)NC(=O)[C@H](Cc2c[nH]cn2)NC(=O)[C@@H](NC(=O)[C@@H](N)CCSC)CSSC[C@@H](C(=O)N[C@@H](CC(N)=O)C(=O)N[C@@H](CCCNC(=N)N)C(N)=O)NC(=O)[C@H](CO)NC1=O` [compound 22] (H-MCHFGLKLDRISCNR-NH2; disulfide 2-13), the EC50 was less than 5 µM.
